The values below come from patent US10117944B2, “Targeted therapeutics” (Madrigal Pharmaceuticals, Inc., priority 2014, dated 2018).

The structures appear in SMILES notation. Bounds are passed on as bounds.

One data set deals with HER2. The data set can be described thus: HER2 degradation assay with BT-474 cell line. The format is cell-based, human. The following applies: BT-474 cells, overnight incubation.
Data set [1] can be described thus: Stability of SDC-TRAPs in mouse plasma. The format is in vitro ADME. Particulars: 37° C. As for the experimental part:
SDC-TRAPs were incubated in mouse plasma for 1 h at 37° C. and assayed for integrity at 0, 0.25, 0.5 and 1 h to assess the stability of the SDC-TRAP, e.g., as compared to the effector and targeting compounds. Compound stability was determined using […].

For data set [2] the following is noted: phase I trial; cited from earlier work.
The conditions of data set [3]: estimated; cited from earlier work.

Experimental for HER2: BT-474 cells (human breast cancer cell line ATCC HTB-20) were obtained from ATCC and seeded into 12-well tissue culture plates at 0.2×10^6/1.8 mL/well. The cells were incubated for more than 6 hours at 37° C. in DMEM+10% FBS, +1% P/S, +1.5 g/L sodium bicarbonate. […] The DMSO final concentration was 0.2%. Cells were incubated overnight at 37° C. in 5% CO2.
Media was decanted from the plate, cells were washed 1× in PBS. 400 μL trypsin (EDTA) per well was added, and the cells were incubated for 2 to 3 minutes. Cells were collected into FACS tubes containing 1 ml culture medium to neutralize the trypsin and were centrifuged for 5 minutes at 1200 rpm. Supernatant was decanted and the cells were resuspended in 5 μL FITC (anti HER2/nu)/200 μL staining buffer (1×PBS+1% FBS+0.05% Sodium Azide)/tube. Controls were 5 μL IgG isotype control and staining buffer only. Tubes were incubated for 30 minutes in the dark at room temperature. 1 mL staining buffer was added to each tube and the tubes were centrifuged for 6 minutes at 1200 rpm. The supernatant was decanted and 300 μL staining buffer was added to each tube, which was stored at 4° C. for FACS (cytometer) analysis. The cytometer readout was normalized and the potency of each compound was evaluated with IC50 calculated with XLfit™ software.

For the molecule `CCNC(=O)c1nnc(-c2cc(C(C)C)c(O)cc2O)n1-c1ccc(Oc2ccc(C(=O)NCC[C@]34OB([C@H](CC(C)C)NC(=O)[C@H](Cc5ccccc5)NC(=O)c5cnccn5)O[C@H]3C[C@@H]3C[C@H]4C3(C)C)cc2)cc1` [SDC-TRAP-0248, N—((S)-1-(((R)-1-((3aR,4S,6S,7aS)-3a-(2-(4-(4-(3-(2,4-dihydroxy-5-isopropylphenyl)-5-(ethylcarbamoyl)-4H-1,2,4-triazol-4-yl)phenoxy)benzamido)ethyl)-5,5-dimethylhexahydro-4,6-methanobenzo[d][1,3,2]dioxaborol-2-yl)-3-methylbutyl)amino)-1-oxo-3-phenylpropan-2-yl)pyrazine-2-carboxamide], the IC50 in the data set on HER2 stood at 37 nM. In addition, in data set [1], the “% Remaining (1 h)” value is 54.8%.
Consider `CC(C)C[C@H](NC(=O)[C@H](Cc1ccccc1)NC(=O)c1cnccn1)B(O)O` [bortezomib], for which, in data set [2], the “Dose at which dose-limiting toxic effects are observed” value was 1.5 mg/m^2. The “Patients presenting with peripheral neuropathy” value in data set [3] is listed as “more than 40%”.
On to `CC(C)C[C@H](NC(=O)[C@H](Cc1ccccc1)NC(=O)c1cnccn1)B1OC(C)(C)C(C)(c2ccc(C(=O)N3CCc4ccc(-n5c(O)nnc5-c5cc(C(C)C)c(O)cc5O)cc4C3)cc2)O1` (stereo partly drawn) [SDC-TRAP-0239, N-((2S)-1-(((1R)-1-(4-(4-(7-(3-(2,4-dihydroxy-5-isopropylphenyl)-5-hydroxy-4H-1,2,4-triazol-4-yl)-1,2,3,4-tetrahydroisoquinoline-2-carbonyl)phenyl)-4,5,5-trimethyl-1,3,2-dioxaborolan-2-yl)-3-methylbutyl)amino)-1-oxo-3-phenylpropan-2-yl)pyrazine-2-carboxamide], for which, in the data set on HER2, the IC50 is more than 5000 nM. Besides, the “% Remaining (1 h)” value in data set [1] is listed as 35.8%.
For `CCNC(=O)c1nnc(-c2cc(C(C)C)c(O)cc2O)n1-c1ccc(Oc2ccc(C(=O)N3CCC4(CC3)OB([C@H](CC(C)C)NC(=O)[C@H](Cc3ccccc3)NC(=O)c3cnccn3)OC4(C)C)cc2)cc1` [SDC-TRAP-0249, N—((S)-1-(((R)-1-(8-(4-(4-(3-(2,4-dihydroxy-5-isopropylphenyl)-5-(ethylcarbamoyl)-4H-1,2,4-triazol-4-yl)phenoxy)benzoyl)-4,4-dimethyl-1,3-dioxa-8-aza-2-boraspiro[4.5]decan-2-yl)-3-methylbutyl)amino)-1-oxo-3-phenylpropan-2-yl)pyrazine-2-carboxamide] the same measures were 36 nM and 8.93%.
For `CC(C)C[C@H](NC(=O)[C@H](Cc1ccccc1)NC(=O)c1cnccn1)B1OC(C)(C)C(C)(c2ccc(C(=O)N3CCN(Cc4ccc(-n5c(O)nnc5-c5cc(C(C)C)c(O)cc5O)cc4)CC3)cc2)O1` (stereo partly drawn) [SDC-TRAP-0236, N-((2S)-1-(((1R)-1-(4-(4-(4-(4-(3-(2,4-dihydroxy-5-isopropylphenyl)-5-hydroxy-4H-1,2,4-triazol-4-yl)benzyl)piperazine-1-carbonyl)phenyl)-4,5,5-trimethyl-1,3,2-dioxaborolan-2-yl)-3-methylbutyl)amino)-1-oxo-3-phenylpropan-2-yl)pyrazine-2-carboxamide] the same measures were 710 nM and 25.5%.
Taken in the same sequence, the figures for `CCNC(=O)c1nnc(-c2cc(C(C)C)c(O)cc2O)n1-c1ccc(Oc2ccc(C(=O)NCCCCCCC3(C)OB([C@H](CC(C)C)NC(=O)[C@H](Cc4ccccc4)NC(=O)c4cnccn4)OC3(C)C)cc2)cc1` (stereo partly drawn) [SDC-TRAP-0246, N-((2S)-1-(((1R)-1-(4-(6-(4-(4-(3-(2,4-dihydroxy-5-isopropylphenyl)-5-(ethylcarbamoyl)-4H-1,2,4-triazol-4-yl)phenoxy)benzamido)hexyl)-4,5,5-trimethyl-1,3,2-dioxaborolan-2-yl)-3-methylbutyl)amino)-1-oxo-3-phenylpropan-2-yl)pyrazine-2-carboxamide] were 110 nM and 63.6%.
The molecule `CCNC(=O)c1nnc(-c2cc(C(C)C)c(O)cc2O)n1-c1ccc2c(ccn2CCC2CCN(C(=O)c3ccc(C4(C)OB([C@H](CC(C)C)NC(=O)[C@H](Cc5ccccc5)NC(=O)c5cnccn5)OC4(C)C)cc3)CC2)c1` (stereo partly drawn) [SDC-TRAP-0240, N-((2S)-1-(((1R)-1-(4-(4-(4-(2-(5-(3-(2,4-dihydroxy-5-isopropylphenyl)-5-(ethylcarbamoyl)-4H-1,2,4-triazol-4-yl)-1H-indol-1-yl)ethyl)piperidine-1-carbonyl)phenyl)-4,5,5-trimethyl-1,3,2-dioxaborolan-2-yl)-3-methylbutyl)amino)-1-oxo-3-phenylpropan-2-yl)pyrazine-2-carboxamide] displayed an IC50 in the data set with HER2 of more than 5000 nM. In addition, the “% Remaining (1 h)” value in data set [1] was determined as 84.0%.
Taken in the same sequence, the figures for `CC(C)C[C@H](NC(=O)[C@H](Cc1ccccc1)NC(=O)c1cnccn1)B1OC(C)(C)C2(CCN(C(=O)CCn3ccc4cc(-n5c(O)nnc5-c5cc(C(C)C)c(O)cc5O)ccc43)CC2)O1` [SDC-TRAP-0250, N—((S)-1-(((R)-1-(8-(3-(5-(3-(2,4-dihydroxy-5-isopropylphenyl)-5-hydroxy-4H-1,2,4-triazol-4-yl)-1H-indol-1-yl)propanoyl)-4,4-dimethyl-1,3-dioxa-8-aza-2-boraspiro[4.5]decan-2-yl)-3-methylbutyl)amino)-1-oxo-3-phenylpropan-2-yl)pyrazine-2-carboxamide] were 2120 nM and 27.0%.
